System: cytochrome P450 1A1 (CYP1A1)
Test: CYP1A1 expression in colonic mucosal tissue of UC patients by RT-PCR (Example 8)
Type: in vivo, human
Settings: mucosal healing (Mayo sub-score 0/1) after treatment
From the text: AhR is a ligand-activated transcription factor that ultimately acts in the nucleus in promoting transcription of various genes, including among others cytochrome P450 1A1 (CYP1A1) which is one of the most important xenobiotic-metabolizing enzymes and an important regulator of immune response in the intestine. Therefore, the inventors studied the expression of CYP1A1 in samples of colonic mucosal tissue obtained from UC patients, using RT-PCR.
Samples of colonic tissue were obtained during lower endoscopy from UC patients treated with CurQD and patients treated by other medications or placebo. Tissue specimens were immersed in liquid nitrogen. Biopsy samples were lysed and homogenized in TRI-Reagent and extracted according to the manufacturer's instructions (Life technologies, USA). Reverse transcription was performed on lug total RNA using the High Capacity RNA to cDNA kit according to the manufacturer's instructions (Applied Biosystems Foster City, CA USA) and Hs01054796_g1 assay for CYP1A1 and Hs99999905_m1 assay for GAPDH (housekeeping gene).

Nc1ccc(O)c(C(=O)O)c1 [Batch 5ASA, 5-aminosalicylic acid]
median CYP1A1 expression in patients who achieved mucosal healing: 4.6
